Laboratory results as given in ChEMBL document CHEMBL1201862, “PubChem BioAssay data set” (2004).
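Where inhibition never reached the appropriate level, the endpoint shown equals the highest concentration tested. Otherwise, values were interpolated linearly from a five-concentration, 48-hour dose response in 96-well plates. Abbreviation: GI50, concentration required for 50% inhibition of growth.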 Activity calls are given as the source filed them. Cut-off read from the data, not from the text of the source: active = GI50 up to about 1.1 µM and inactive = higher.

Experiments:
Experiment in all cases: growth of human tumour cells (NCI), 48 h
M14 = test system: M14
SK-OV-3 = test system: SK-OV-3
HOP-92 = test system: HOP-92
HT-29 = test system: HT-29
OVCAR-8 = test system: OVCAR-8
SK-MEL-5 = test system: SK-MEL-5
NCI-H226 = test system: NCI-H226
MCF7 = test system: MCF7
HL-60 = test system: HL-60
U-251 = test system: U-251
SN12C = test system: SN12C
COLO 205 = test system: COLO 205
NCI/ADR-RES = test system: NCI/ADR-RES
SNB-75 = test system: SNB-75
NCI-H522 = test system: NCI-H522
HCT-15 = test system: HCT-15
Hs-578T = test system: Hs-578T
A549 = test system: A549
HCC 2998 = test system: HCC 2998
RPMI-8226 = test system: RPMI-8226

SMILES | GI50 (M14) | GI50 (SK-OV-3) | GI50 (HOP-92) | GI50 (HT-29) | GI50 (OVCAR-8) | GI50 (SK-MEL-5) | GI50 (NCI-H226) | GI50 (MCF7) | GI50 (HL-60) | GI50 (U-251) | GI50 (SN12C) | GI50 (COLO 205) | GI50 (NCI/ADR-RES) | GI50 (SNB-75) | GI50 (NCI-H522) | GI50 (HCT-15) [µM] | GI50 (Hs-578T) | GI50 (A549) | GI50 (HCC 2998) | GI50 (RPMI-8226)
CCOc1cc(/C=N/c2ccc(Oc3ccc(Cl)cc3)c(Cl)c2)ccc1O | 29.8 µM (inactive) | 26.1 µM (inactive) | 19.7 µM (inactive) | 20.8 µM (inactive) | 23 µM (inactive) | 22.3 µM (inactive) | 26.9 µM (inactive) | 31.9 µM (inactive) | 15.3 µM (inactive) | 21.7 µM (inactive) | 20.8 µM (inactive) | 17.5 µM (inactive) | 21.8 µM (inactive) | 17.8 µM (inactive) | 13.7 µM (inactive) | 22.5 | 18.8 µM (inactive) | 30.1 µM (inactive) | 19.3 µM (inactive) | 29.7 µM (inactive)
O=c1oc2ccccc2c(O)c1C(C/C(CCN1CCCC1)=N/O)c1ccccc1 (stereo not given) | > 100 µM (inactive) | > 100 µM (inactive) | 56.4 µM (inactive) | > 100 µM (inactive) | > 100 µM (inactive) | > 100 µM (inactive) | > 100 µM (inactive) | > 100 µM (inactive) | > 31.6 µM (inactive) | > 100 µM (inactive) | > 100 µM (inactive) | > 100 µM (inactive) | > 100 µM (inactive) | > 91.2 µM (inactive) | > 100 µM (inactive) | > 100 | > 100 µM (inactive) | > 100 µM (inactive) | > 100 µM (inactive) | > 94.8 µM (inactive)
CC(C(=O)O)/C(=C\c1ccc2c(c1)OCO2)C(=O)O (stereo not given) | > 100 µM (inactive) | > 100 µM (inactive) | > 100 µM (inactive) | > 61.5 µM (inactive) | > 100 µM (inactive) | > 100 µM (inactive) | > 77.6 µM (inactive) | > 100 µM (inactive) | 0.0226 µM (active) | > 100 µM (inactive) | > 100 µM (inactive) | > 100 µM (inactive) | > 100 µM (inactive) | > 100 µM (inactive) | > 100 µM (inactive) | > 100 | > 100 µM (inactive) | > 100 µM (inactive) | > 100 µM (inactive) | > 100 µM (inactive)
COc1cc(C2c3cc4c(cc3OC(C)(N3CCCC3)C2C)OCO4)cc(OC)c1OC (stereo not given) | 0.242 µM (active) | 0.391 µM (active) | 2.19 µM (inactive) | 0.293 µM (active) | 0.472 µM (active) | 0.247 µM (active) | 0.313 µM (active) | 0.457 µM (active) | 0.182 µM (active) | 0.385 µM (active) | 0.446 µM (active) | 0.22 µM (active) | 0.192 µM (active) | 0.269 µM (active) | 0.209 µM (active) | 0.472 | 0.273 µM (active) | 0.515 µM (active) | 0.389 µM (active) | 0.337 µM (active)
CN(C)c1ccc(-c2nc(-c3cc4c(ccc5ccccc54)oc3=O)cs2)cc1 | > 100 µM (inactive) | > 100 µM (inactive) | > 100 µM (inactive) | > 100 µM (inactive) | > 100 µM (inactive) | > 100 µM (inactive) | > 100 µM (inactive) | > 100 µM (inactive) | > 100 µM (inactive) | > 100 µM (inactive) | > 100 µM (inactive) | > 100 µM (inactive) | > 100 µM (inactive) | > 100 µM (inactive) | > 100 µM (inactive) | > 100 | > 100 µM (inactive) | > 100 µM (inactive) | > 100 µM (inactive) | > 100 µM (inactive)
Cc1cc(=O)oc2cc3oc(N(C)c4ccccc4)nc(=O)c3cc12 | > 100 µM (inactive) | > 100 µM (inactive) | 22.7 µM (inactive) | > 100 µM (inactive) | 42.4 µM (inactive) | > 100 µM (inactive) | > 100 µM (inactive) | > 100 µM (inactive) | > 100 µM (inactive) | 56 µM (inactive) | > 100 µM (inactive) | > 100 µM (inactive) | > 100 µM (inactive) | > 100 µM (inactive) | 58.9 µM (inactive) | > 100 | 46.7 µM (inactive) | > 100 µM (inactive) | > 100 µM (inactive) | > 100 µM (inactive)
COc1ccc(-n2c(SC(CN3CCOCC3)CN3CCCC3=O)nc3ccccc3c2=O)cc1 (stereo not given) | > 100 µM (inactive) | > 100 µM (inactive) | > 100 µM (inactive) | > 100 µM (inactive) | > 100 µM (inactive) | > 100 µM (inactive) | 40.8 µM (inactive) | > 100 µM (inactive) | 85.9 µM (inactive) | > 100 µM (inactive) | > 100 µM (inactive) | > 100 µM (inactive) | > 100 µM (inactive) | 70.8 µM (inactive) | > 100 µM (inactive) | > 100 | > 100 µM (inactive) | 87.7 µM (inactive) | > 100 µM (inactive) | > 100 µM (inactive)
CC(=O)CC[N+](C)(C)C | 23 µM (inactive) | 26.7 µM (inactive) | 10.7 µM (inactive) | 32.7 µM (inactive) | 33.5 µM (inactive) | 30.3 µM (inactive) | 53 µM (inactive) | 30.3 µM (inactive) | 4.42 µM (inactive) | 34.6 µM (inactive) | 27.7 µM (inactive) | 9.04 µM (inactive) | 38.9 µM (inactive) | 29 µM (inactive) | 0.929 µM (active) | 22.7 | 12.6 µM (inactive) | 83.4 µM (inactive) | 52.5 µM (inactive) | 5.94 µM (inactive)
COc1ccc(C2c3cc4c(cc3OC3(OC)COC(=O)C23)OCO4)c(OC)c1 (stereo not given) | 3.73 µM (inactive) | 15.9 µM (inactive) | 26.5 µM (inactive) | 3.4 µM (inactive) | 9.84 µM (inactive) | 4.84 µM (inactive) | 25.1 µM (inactive) | 4.85 µM (inactive) | 2.32 µM (inactive) | 7.35 µM (inactive) | 15.6 µM (inactive) | 5.62 µM (inactive) | 3.23 µM (inactive) | 8.93 µM (inactive) | 2.43 µM (inactive) | 5.19 | 3.78 µM (inactive) | 10.1 µM (inactive) | 30 µM (inactive) | 3.56 µM (inactive)
CC(=O)NC(=N/N=C1/C(=O)Nc2ccc(C)cc21)NC(C)=O | > 100 µM (inactive) | > 100 µM (inactive) | > 100 µM (inactive) | > 100 µM (inactive) | > 100 µM (inactive) | > 100 µM (inactive) | 98.2 µM (inactive) | > 100 µM (inactive) | > 100 µM (inactive) | > 100 µM (inactive) | > 100 µM (inactive) | > 100 µM (inactive) | > 100 µM (inactive) | 31.6 µM (inactive) | > 100 µM (inactive) | > 100 | > 100 µM (inactive) | > 100 µM (inactive) | > 100 µM (inactive) | > 100 µM (inactive)
